# Assay results reported in patent US11542497B2, “Method for evaluating multiple different genes of interest” (THE UNIVERSITY OF TOKYO, priority 2017, dated 2023).
# What was measured:
# [1] = system: DLD1 BRCA2 (−/−) line with introduced BRCA2 variants; assay: MANO-B method, olaparib at varied concentrations (Example 7); format: cell-based; details: for relative read count (no chemical = 1): Day 12, average of n=3
# Procedure: (§1) First, 3 different unique bar code sequences were added (to conduct experiments at n=3) to each of 11 different plasmids including: plasmids having wild-type BRCA2, K2729N mutation (benign), D2723H mutation (pathogenic), and 7 truncate variants in which a stop codon is introduced about every 500 amino acids (K485*, L997*, Q1502*, K1984*, C2535*, W2970*, C3304*); and piggyBac empty vector (System Biosciences, LLC). Accordingly, the total of 33 different plasmids were prepared. DLD1 BRCA2 (−/−) line was transfected with each plasmid and a transposase expression plasmid pCMV-hyPBase (Sanger Institute) in accordance with the manufacturer's protocol. In this way, cells having BRCA genes stably introduced in their genome were prepared.
# (§2) Different cell lines having mutated genes tagged with bar code sequences introduced were mixed in equal numbers. At this time point, genomic DNA was once extracted (Day 0). Here, a PARP inhibitor (olaparib) was given at varied concentrations and then cultured. Genomic DNA was extracted from the cells collected at Day 12 and was used as a template to PCR-amplify each bar code sequence. After that, deep-sequencing was performed with a next-generation sequencer. The effects of each mutation on the drug sensitivity and the cell proliferation potential were assessed from a change in the ratio of bar code read counts between the case of no chemical treatment and the case of chemical treatment.
# The results were normalized while the read count when no chemical was given was set to 1.
# When functional BRCA2 is introduced into cells, homologous recombination-mediated repair function is restored, and thus the sensitivity to the drug, a PARP inhibitor, decreases and the cells become resistant to the inhibitor. By contrast, cells having a function-deficient BRCA2 introduced are sensitive to the PARP inhibitor, so that the relative cell count decreases when the PARP inhibitor is added. Based on such criteria, the function of each mutated BRCA2 was examined. […] Thus, the mutation was determined to be a function-preserving, benign mutation, which is consistent with past reports.
# [2] = system: DLD1 BRCA2 (−/−) line with introduced BRCA2 mutations; assay: MANO-B method, Clinvar BRCA2 mutations, olaparib 1 μM (Example 8, FIG. 9); format: cell-based
# Procedure: as §1, §2
# Mutations registered at the Clinvar (https://www.ncbi.nlm.nih.gov/clinvar/) (18 kinds of benign mutation, 52 mutations of VUS or with conflicting interpretations, and 8 kinds of malignant mutation) were evaluated by the MANO-B method using the same procedure as of Example 7 (except that olaparib was used at 1 μM). As a result, most of the benign mutations or malignant mutations registered at the Clinvar were determined to be likewise benign or malignant, respectively, by the MANO-B method (data not shown).
structure (smiles),measurement,setting,value
O=C(c1cc(Cc2n[nH]c(=O)c3ccccc23)ccc1F)N1CCN(C(=O)C2CC2)CC1 [olaparib],relative read count (no chemical = 1),"[1]; BRCA2 C2535*, olaparib 1 nM",0.94
same,relative read count (no chemical = 1),"[1]; BRCA2 C2535*, olaparib 5 nM",0.78
same,relative read count (no chemical = 1),"[1]; BRCA2 C2535*, olaparib 10 nM",0.77
same,relative read count (no chemical = 1),"[1]; BRCA2 C2535*, olaparib 50 nM",0.4
same,relative read count (no chemical = 1),"[1]; BRCA2 C2535*, olaparib 100 nM",0.27
same,relative read count (no chemical = 1),"[1]; BRCA2 C2535*, olaparib 500 nM",0.08
same,relative read count (no chemical = 1),"[1]; BRCA2 C2535*, olaparib 1 μM",0.05
same,relative read count (no chemical = 1),"[1]; BRCA2 C3304*, olaparib 1 nM",0.98
same,relative read count (no chemical = 1),"[1]; BRCA2 C3304*, olaparib 5 nM",1.14
same,relative read count (no chemical = 1),"[1]; BRCA2 C3304*, olaparib 10 nM",1.17
same,relative read count (no chemical = 1),"[1]; BRCA2 C3304*, olaparib 50 nM",0.94
same,relative read count (no chemical = 1),"[1]; BRCA2 C3304*, olaparib 100 nM",0.69
same,relative read count (no chemical = 1),"[1]; BRCA2 C3304*, olaparib 500 nM",0.3
same,relative read count (no chemical = 1),"[1]; BRCA2 C3304*, olaparib 1 μM",0.29
same,resistance of BRCA2 D2723H mutant to the PARP inhibitor,[1]; BRCA2 D2723H,did not exhibit resistance
same,relative read count (no chemical = 1),"[1]; BRCA2 D2723H, olaparib 1 nM",0.97
same,relative read count (no chemical = 1),"[1]; BRCA2 D2723H, olaparib 5 nM",0.76
same,relative read count (no chemical = 1),"[1]; BRCA2 D2723H, olaparib 10 nM",0.67
same,relative read count (no chemical = 1),"[1]; BRCA2 D2723H, olaparib 50 nM",0.34
same,relative read count (no chemical = 1),"[1]; BRCA2 D2723H, olaparib 100 nM",0.18
same,relative read count (no chemical = 1),"[1]; BRCA2 D2723H, olaparib 500 nM",0.07
same,relative read count (no chemical = 1),"[1]; BRCA2 D2723H, olaparib 1 μM",0.07
same,relative read count (no chemical = 1),"[1]; BRCA2 K485*, olaparib 1 nM",0.79
same,relative read count (no chemical = 1),"[1]; BRCA2 K485*, olaparib 5 nM",0.66
same,relative read count (no chemical = 1),"[1]; BRCA2 K485*, olaparib 10 nM",0.54
same,relative read count (no chemical = 1),"[1]; BRCA2 K485*, olaparib 50 nM",0.26
same,relative read count (no chemical = 1),"[1]; BRCA2 K485*, olaparib 100 nM",0.15
same,relative read count (no chemical = 1),"[1]; BRCA2 K485*, olaparib 500 nM",0.06
same,relative read count (no chemical = 1),"[1]; BRCA2 K485*, olaparib 1 μM",0.05
same,relative read count (no chemical = 1),"[1]; BRCA2 K1984*, olaparib 1 nM",0.94
same,relative read count (no chemical = 1),"[1]; BRCA2 K1984*, olaparib 5 nM",0.84
same,relative read count (no chemical = 1),"[1]; BRCA2 K1984*, olaparib 10 nM",0.77
same,relative read count (no chemical = 1),"[1]; BRCA2 K1984*, olaparib 50 nM",0.36
same,relative read count (no chemical = 1),"[1]; BRCA2 K1984*, olaparib 100 nM",0.25
same,relative read count (no chemical = 1),"[1]; BRCA2 K1984*, olaparib 500 nM",0.08
same,relative read count (no chemical = 1),"[1]; BRCA2 K1984*, olaparib 1 μM",0.05
same,resistance of BRCA2 K2729N mutant to the PARP inhibitor compared with the wild-type,[1]; BRCA2 K2729N,substantially the same resistance
same,relative read count (no chemical = 1),"[1]; BRCA2 K2729N, olaparib 1 nM",1.08
same,relative read count (no chemical = 1),"[1]; BRCA2 K2729N, olaparib 5 nM",1.58
same,relative read count (no chemical = 1),"[1]; BRCA2 K2729N, olaparib 10 nM",1.36
same,relative read count (no chemical = 1),"[1]; BRCA2 K2729N, olaparib 50 nM",1.74
same,relative read count (no chemical = 1),"[1]; BRCA2 K2729N, olaparib 100 nM",2.31
same,relative read count (no chemical = 1),"[1]; BRCA2 K2729N, olaparib 500 nM",4.76
same,relative read count (no chemical = 1),"[1]; BRCA2 K2729N, olaparib 1 μM",3.72
same,relative read count (no chemical = 1),"[1]; BRCA2 L997*, olaparib 1 nM",0.85
same,relative read count (no chemical = 1),"[1]; BRCA2 L997*, olaparib 5 nM",0.71
same,relative read count (no chemical = 1),"[1]; BRCA2 L997*, olaparib 10 nM",0.54
same,relative read count (no chemical = 1),"[1]; BRCA2 L997*, olaparib 50 nM",0.24
same,relative read count (no chemical = 1),"[1]; BRCA2 L997*, olaparib 100 nM",0.13
same,relative read count (no chemical = 1),"[1]; BRCA2 L997*, olaparib 500 nM",0.06
same,relative read count (no chemical = 1),"[1]; BRCA2 L997*, olaparib 1 μM",0.07
same,relative read count (no chemical = 1),"[1]; BRCA2 Q1502*, olaparib 1 nM",1
same,relative read count (no chemical = 1),"[1]; BRCA2 Q1502*, olaparib 5 nM",0.88
same,relative read count (no chemical = 1),"[1]; BRCA2 Q1502*, olaparib 10 nM",0.78
same,relative read count (no chemical = 1),"[1]; BRCA2 Q1502*, olaparib 50 nM",0.43
same,relative read count (no chemical = 1),"[1]; BRCA2 Q1502*, olaparib 100 nM",0.24
same,relative read count (no chemical = 1),"[1]; BRCA2 Q1502*, olaparib 500 nM",0.12
same,relative read count (no chemical = 1),"[1]; BRCA2 Q1502*, olaparib 1 μM",0.07
same,relative read count (no chemical = 1),"[1]; BRCA2 W2970*, olaparib 1 nM",0.97
same,relative read count (no chemical = 1),"[1]; BRCA2 W2970*, olaparib 5 nM",0.93
same,relative read count (no chemical = 1),"[1]; BRCA2 W2970*, olaparib 10 nM",0.75
same,relative read count (no chemical = 1),"[1]; BRCA2 W2970*, olaparib 50 nM",0.45
same,relative read count (no chemical = 1),"[1]; BRCA2 W2970*, olaparib 100 nM",0.22
same,relative read count (no chemical = 1),"[1]; BRCA2 W2970*, olaparib 500 nM",0.09
same,relative read count (no chemical = 1),"[1]; BRCA2 W2970*, olaparib 1 μM",0.07
same,relative read count (no chemical = 1),"[1]; BRCA2 wild type, olaparib 1 nM",1.22
same,relative read count (no chemical = 1),"[1]; BRCA2 wild type, olaparib 5 nM",1.52
same,relative read count (no chemical = 1),"[1]; BRCA2 wild type, olaparib 10 nM",1.92
same,relative read count (no chemical = 1),"[1]; BRCA2 wild type, olaparib 50 nM",3.19
same,relative read count (no chemical = 1),"[1]; BRCA2 wild type, olaparib 100 nM",3.82
same,relative read count (no chemical = 1),"[1]; BRCA2 wild type, olaparib 500 nM",4.2
same,relative read count (no chemical = 1),"[1]; BRCA2 wild type, olaparib 1 μM",4.42
same,relative read count (no chemical = 1),"[1]; Empty vector, olaparib 1 nM",0.98
same,relative read count (no chemical = 1),"[1]; Empty vector, olaparib 5 nM",0.82
same,relative read count (no chemical = 1),"[1]; Empty vector, olaparib 10 nM",0.69
same,relative read count (no chemical = 1),"[1]; Empty vector, olaparib 50 nM",0.38
same,relative read count (no chemical = 1),"[1]; Empty vector, olaparib 100 nM",0.21
same,relative read count (no chemical = 1),"[1]; Empty vector, olaparib 500 nM",0.07
same,relative read count (no chemical = 1),"[1]; Empty vector, olaparib 1 μM",0.05
same,MANO-B group of VUS / conflicting-interpretation BRCA2 mutations,"[2]; 5 mutants: D2913H, P2639L, S3291C, D23V, and I2664M","impossible-to-determine (the thresholds were set to 0.1 and 0.5 and the mutations were grouped into 3 groups of benign, malignant, and impossible-to-determine mutations)"
same,MANO-B group of VUS / conflicting-interpretation BRCA2 mutations,"[2]; 9 mutants: R2659G, N3124I, L2604P, W31C, E2663K, W2626R, D3073G, G2609D, and P2329L","malignant (the thresholds were set to 0.1 and 0.5 and the mutations were grouped into 3 groups of benign, malignant, and impossible-to-determine mutations)"
same,MANO-B group of VUS / conflicting-interpretation BRCA2 mutations,"[2]; 38 mutants: R2896C, A2643G, S142N, N854S, Y42C, G602V, T3387A, T2412A, E3096K, E2020K, S3319F, V1532F, E747G, S2697N, K2411T, P3054S, Q147R, S445Y, S755C, Y600C, K2075N, V159E, P41L, H595Y, F266L, R3385H, T2337A, I2627V, I1167V, N55S, V208G, P3292L, S1074C, T598A, T2071, R324T, A2911V, E1695V","benign (the thresholds were set to 0.1 and 0.5 and the mutations were grouped into 3 groups of benign, malignant, and impossible-to-determine mutations)"
same,"MANO-B score, highest score of the malignant mutations",[2]; BRCA2 G2724W,0.03839
same,"MANO-B score, lowest score of the benign mutations",[2]; BRCA2 N2436I,0.7386
